Measurements from patent publication US20060030497A1, “Conveyor track or container lubricant compositions” (priority 2004, published 2006).

Assay: Spreading test: drop on a polybutene surface in a Petri dish, compared with water
Assay type: physicochemical
Details: water containing 0.1% by weight of spreading agent; drop of 50μ on polybutene; pure water about 10 mm
Excerpt: Compositions of the present invention have the advantage that they spread more efficiently and completely on polymeric conveyor surfaces than previously known conveyor lubricant compositions containing polydimethylsiloxane. […] When the lubricant is applied to a polymeric conveyor surface, the conveyor surface soon becomes very hydrophobic due to the adsorption and/or absorption of the silicone oil lubricant on the surface. The lubricant persists on the surface so that it presents a very hydrophobic surface to subsequently applied lubricant. The lubricants of the present invention readily wet the oil soaked silicone lubricant surface as evidenced by the lubricants rapidly spreading on the surface without beading. […]
A useful test to determine the spreading ratios of the lubricants of the present invention is to compare spreading on a standard polybutene surface in a Petri dish. In this test, a drop of 50μ of the composition to be measured is applied to a polybutene surface in a Petri dish and after 30 seconds the linear movement of the liquid is measured by taking the average diameter of the substantially circular liquid. Pure water has been measured to have a diameter of about 10 mm. […]
The compositions prepared above were diluted at a ratio of 1 part lubricant to 200 parts water. […] The spreading ratio of the lubricant was measured using the test as described above. […]

- movement of the drop (average diameter of the liquid) after 30 seconds: 110 mm
Substance: heptamethyl trisiloxane with a hydroxy terminated polyethyleneoxide pendant group [Silwet® L-7608]
